From patent US9290777B2, “Putative cytokinin receptor and methods for use thereof” (NATIONAL UNIVERSITY OF SINGAPORE, priority 2007, dated 2016)

Tested on: ARR6
Test: qRT-PCR of cytokinin responsive gene after BA pulse, fold change vs untreated wild type
Type: cell-based, Arabidopsis thaliana

c1ccc(CNc2ncnc3nc[nH]c23)cc1 [benzyladenine]
ARR6 fold change (BA 0.01 μM, 5 min, AS1, ↑ up): 4.12↑
ARR6 fold change (BA 0.01 μM, 5 min, AS8, ↑ up): 7.1↑
ARR6 fold change (BA 0.01 μM, 5 min, AS21, ↑ up): 9.2↑
ARR6 fold change (BA 0.01 μM, 5 min, OE1, ↓ down): 5.51↓
ARR6 fold change (BA 0.01 μM, 5 min, OE12, ↓ down): 6.87↓
ARR6 fold change (BA 0.01 μM, 5 min, OE18, ↓ down): 8.56↓
ARR6 fold change (BA 0.01 μM, 5 min, Wild type, ↑ up): 4.13↑
ARR6 fold change (BA 0.01 μM, 15 min, AS1, ↑ up): 4.57↑
ARR6 fold change (BA 0.01 μM, 15 min, AS8, ↑ up): 7.41↑
ARR6 fold change (BA 0.01 μM, 15 min, AS21, ↑ up): 9.58↑
ARR6 fold change (BA 0.01 μM, 15 min, OE1, ↓ down): 5.33↓
ARR6 fold change (BA 0.01 μM, 15 min, OE12, ↓ down): 6.56↓
ARR6 fold change (BA 0.01 μM, 15 min, OE18, ↓ down): 8.32↓
ARR6 fold change (BA 0.01 μM, 15 min, Wild type, ↑ up): 4.67↑
ARR6 fold change (BA 0.01 μM, 30 min, AS1, ↑ up): 5.98↑
ARR6 fold change (BA 0.01 μM, 30 min, AS8, ↑ up): 7.86↑
ARR6 fold change (BA 0.01 μM, 30 min, AS21, ↑ up): 9.79↑
ARR6 fold change (BA 0.01 μM, 30 min, OE1, ↓ down): 5.11↓
ARR6 fold change (BA 0.01 μM, 30 min, OE12, ↓ down): 6.13↓
ARR6 fold change (BA 0.01 μM, 30 min, OE18, ↓ down): 8.13↓
ARR6 fold change (BA 0.01 μM, 30 min, Wild type, ↑ up): 4.98↑
ARR6 fold change (BA 0.01 μM, 1 h, AS1, ↑ up): 6.2↑
ARR6 fold change (BA 0.01 μM, 1 h, AS8, ↑ up): 7.98↑
ARR6 fold change (BA 0.01 μM, 1 h, AS21, ↑ up): 10.15↑
ARR6 fold change (BA 0.01 μM, 1 h, OE1, ↓ down): 4.91↓
ARR6 fold change (BA 0.01 μM, 1 h, OE12, ↓ down): 5.06↓
ARR6 fold change (BA 0.01 μM, 1 h, OE18, ↓ down): 7.98↓
ARR6 fold change (BA 0.01 μM, 1 h, Wild type, ↑ up): 5.15↑
ARR6 fold change (BA 0.1 μM, 5 min, AS1, ↑ up): 6.14↑
ARR6 fold change (BA 0.1 μM, 5 min, AS8, ↑ up): 8.12↑
ARR6 fold change (BA 0.1 μM, 5 min, AS21, ↑ up): 10.31↑
ARR6 fold change (BA 0.1 μM, 5 min, OE1, ↓ down): 5.1↓
ARR6 fold change (BA 0.1 μM, 5 min, OE12, ↓ down): 5.91↓
ARR6 fold change (BA 0.1 μM, 5 min, OE18, ↓ down): 7.89↓
ARR6 fold change (BA 0.1 μM, 5 min, Wild type, ↑ up): 5.36↑
ARR6 fold change (BA 0.1 μM, 15 min, AS1, ↑ up): 6.39↑
ARR6 fold change (BA 0.1 μM, 15 min, AS8, ↑ up): 8.32↑
ARR6 fold change (BA 0.1 μM, 15 min, AS21, ↑ up): 10.46↑
ARR6 fold change (BA 0.1 μM, 15 min, OE1, ↓ down): 5.04↓
ARR6 fold change (BA 0.1 μM, 15 min, OE12, ↓ down): 5.71↓
ARR6 fold change (BA 0.1 μM, 15 min, OE18, ↓ down): 5.72↓
ARR6 fold change (BA 0.1 μM, 15 min, Wild type, ↑ up): 5.58↑
ARR6 fold change (BA 0.1 μM, 30 min, AS1, ↑ up): 6.69↑
ARR6 fold change (BA 0.1 μM, 30 min, AS8, ↑ up): 8.57↑
ARR6 fold change (BA 0.1 μM, 30 min, AS21, ↑ up): 10.68↑
ARR6 fold change (BA 0.1 μM, 30 min, OE1, ↓ down): 4.9↓
ARR6 fold change (BA 0.1 μM, 30 min, OE12, ↓ down): 5.59↓
ARR6 fold change (BA 0.1 μM, 30 min, OE18, ↓ down): 5.36↓
ARR6 fold change (BA 0.1 μM, 30 min, Wild type, ↑ up): 5.89↑
ARR6 fold change (BA 0.1 μM, 1 h, AS1, ↑ up): 6.98↑
ARR6 fold change (BA 0.1 μM, 1 h, AS8, ↑ up): 8.99↑
ARR6 fold change (BA 0.1 μM, 1 h, AS21, ↑ up): 10.97↑
ARR6 fold change (BA 0.1 μM, 1 h, OE1, ↓ down): 4.67↓
ARR6 fold change (BA 0.1 μM, 1 h, OE12, ↓ down): 4.61↓
ARR6 fold change (BA 0.1 μM, 1 h, OE18, ↓ down): 5.01↓
ARR6 fold change (BA 0.1 μM, 1 h, Wild type, ↑ up): 5.99↑
ARR6 fold change (BA 1.0 μM, 5 min, AS1, ↑ up): 7.43↑
ARR6 fold change (BA 1.0 μM, 5 min, AS8, ↑ up): 9.01↑
ARR6 fold change (BA 1.0 μM, 5 min, AS21, ↑ up): 10.99↑
ARR6 fold change (BA 1.0 μM, 5 min, OE1, ↓ down): 4.96↓
ARR6 fold change (BA 1.0 μM, 5 min, OE12, ↓ down): 5.19↓
ARR6 fold change (BA 1.0 μM, 5 min, OE18, ↓ down): 4.36↓
ARR6 fold change (BA 1.0 μM, 5 min, Wild type, ↑ up): 6.1↑
ARR6 fold change (BA 1.0 μM, 15 min, AS1, ↑ up): 7.68↑
ARR6 fold change (BA 1.0 μM, 15 min, AS8, ↑ up): 9.43↑
ARR6 fold change (BA 1.0 μM, 15 min, AS21, ↑ up): 11.12↑
ARR6 fold change (BA 1.0 μM, 15 min, OE1, ↓ down): 4.71↓
ARR6 fold change (BA 1.0 μM, 15 min, OE12, ↓ down): 5.01↓
ARR6 fold change (BA 1.0 μM, 15 min, OE18, ↓ down): 4.21↓
ARR6 fold change (BA 1.0 μM, 15 min, Wild type, ↑ up): 6.31↑
ARR6 fold change (BA 1.0 μM, 30 min, AS1, ↑ up): 7.73↑
ARR6 fold change (BA 1.0 μM, 30 min, AS8, ↑ up): 9.69↑
ARR6 fold change (BA 1.0 μM, 30 min, AS21, ↑ up): 11.35↑
ARR6 fold change (BA 1.0 μM, 30 min, OE1, ↓ down): 4.49↓
ARR6 fold change (BA 1.0 μM, 30 min, OE12, ↓ down): 4.89↓
ARR6 fold change (BA 1.0 μM, 30 min, OE18, ↓ down): 4.01↓
ARR6 fold change (BA 1.0 μM, 30 min, Wild type, ↑ up): 6.59↑
ARR6 fold change (BA 1.0 μM, 1 h, AS1, ↑ up): 8.01↑
ARR6 fold change (BA 1.0 μM, 1 h, AS8, ↑ up): 9.93↑
ARR6 fold change (BA 1.0 μM, 1 h, AS21, ↑ up): 11.76↑
ARR6 fold change (BA 1.0 μM, 1 h, OE1, ↓ down): 3.21↓
ARR6 fold change (BA 1.0 μM, 1 h, OE12, ↓ down): 3.56↓
ARR6 fold change (BA 1.0 μM, 1 h, OE18, ↓ down): 3.01↓
ARR6 fold change (BA 1.0 μM, 1 h, Wild type, ↑ up): 6.87↑
ARR6 fold change (BA 5.0 μM, 5 min, AS1, ↑ up): 7.98↑
ARR6 fold change (BA 5.0 μM, 5 min, AS8, ↑ up): 9.98↑
ARR6 fold change (BA 5.0 μM, 5 min, AS21, ↑ up): 11.43↑
ARR6 fold change (BA 5.0 μM, 5 min, OE1, ↓ down): 4.19↓
ARR6 fold change (BA 5.0 μM, 5 min, OE12, ↓ down): 4.67↓
ARR6 fold change (BA 5.0 μM, 5 min, OE18, ↓ down): 3.45↓
ARR6 fold change (BA 5.0 μM, 5 min, Wild type, ↑ up): 7.52↑
ARR6 fold change (BA 5.0 μM, 15 min, AS1, ↑ up): 8.01↑
ARR6 fold change (BA 5.0 μM, 15 min, AS8, ↑ up): 10.07↑
ARR6 fold change (BA 5.0 μM, 15 min, AS21, ↑ up): 11.56↑
ARR6 fold change (BA 5.0 μM, 15 min, OE1, ↓ down): 4.01↓
ARR6 fold change (BA 5.0 μM, 15 min, OE12, ↓ down): 4.62↓
ARR6 fold change (BA 5.0 μM, 15 min, OE18, ↓ down): 3.18↓
ARR6 fold change (BA 5.0 μM, 15 min, Wild type, ↑ up): 7.69↑
ARR6 fold change (BA 5.0 μM, 30 min, AS1, ↑ up): 8.23↑
ARR6 fold change (BA 5.0 μM, 30 min, Wild type, ↑ up): 7.89↑
